Assay results published in the supplement of paper PMC10307832.

Experiments:
Test in all cases: relative viability (nuclei count vs DMSO), 5 days (fraction); higher = more cells survive
[1] = compound: C1CNCCC1C2=CC(=NN2)C3=CC=NC=C3 + COc1cc2c(Oc3ccc(NC(=O)C4(C(=O)Nc5ccc(F)cc5)CC4)cc3F)ccnc2cc1OCCCN1CCOCC1 [Foretinib] (partner 0.25 µM)
Summary of the method: (§1)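 Lung cancer cell lines were seeded in 1536-well plates and dosed by pin tool the next day, with either a single drug or a fixed anchor-drug dose combined with five library-drug doses (not always all listed) spaced in √10 steps. Five days later, one step fixed the cells and stained their nuclei (final 0.05% Triton X-100, 1% formaldehyde, 1 ug/ml Hoechst), and nuclei were counted on 4× images. Relative viability is the nuclei count in treated wells divided by the count in vehicle wells, and each value is the median of duplicate plates.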

[2] = compound: C[C@@H](N)c1ccc(C(=O)Nc2ccnc3[nH]ccc23)cc1 + CC1(C)CCC(c2ccc(Cl)cc2)=C(CN2CCN(c3ccc(C(=O)NS(=O)(=O)c4ccc(N[C@H](CCN5CCOCC5)CSc5ccccc5)c(S(=O)(=O)C(F)(F)F)c4)cc3)CC2)C1 [Navitoclax] (partner 0.5 µM)
Summary of the method: as §1

[3] = compound: O[C@H]1CC[C@H](Nc2ncc3nc(Nc4c(F)cc(F)cc4F)n([C@H]4CCOC4)c3n2)CC1 [Tanzisertib] + CC(=O)Nc1cccc(-n2c(=O)n(C3CC3)c(=O)c3c(Nc4ccc(I)cc4F)n(C)c(=O)c(C)c32)c1 [Trametinib] (partner 0.02 µM)
Summary of the method: as §1

[4] = compound: C[C@@H](N)c1ccc(C(=O)Nc2ccnc3[nH]ccc23)cc1 + Cc1nc(NC(=O)N2CCC[C@H]2C(N)=O)sc1-c1ccnc(C(C)(C)C(F)(F)F)c1 [Alpelisib] (partner 2 µM)
Summary of the method: as §1

Cell Line	relative viability ([1]; first compound 0.08 µM)	relative viability ([1]; first compound 0.8 µM)	relative viability ([1]; first compound 2.53 µM)	relative viability ([1]; first compound 8 µM)	relative viability ([2]; first compound 0.04 µM)	relative viability ([2]; first compound 0.1265 µM)	relative viability ([2]; first compound 0.4 µM)	relative viability ([2]; first compound 4 µM)	relative viability ([3]; first compound 0.08 µM)	relative viability ([3]; first compound 0.253 µM)	relative viability ([3]; first compound 0.8 µM)	relative viability ([3]; first compound 2.53 µM)	relative viability ([3]; first compound 8 µM)	relative viability ([4]; first compound 0.04 µM)	relative viability ([4]; first compound 0.1265 µM)	relative viability ([4]; first compound 0.4 µM)	relative viability ([4]; first compound 4 µM)	relative viability ([2]; first compound 1.265 µM)	relative viability ([4]; first compound 1.265 µM)
NCI-H1793	0.619	0.659	0.72	0.654	0.415	0.421	0.409	0.501	0.65	0.419	0.475	0.398	0.542	0.853	0.672	0.704	0.833		
NCI-H1915	1.07	1.13	1.06	1.09	0.755	0.792	0.817	0.723	0.31	0.306	0.296	0.268	0.258	1.12	1.06	1.06	0.873		
NCI-H1944	0.845	0.884	0.997	0.839	1.05	1.01	1.06	0.876	0.455	0.422	0.435	0.343	0.403	0.981	0.796	0.928	0.657		
NCI-H1975	1.07	1.03	0.962	0.932	1.13	0.978	0.995	0.434	0.396	0.422	0.345	0.349	0.341	0.692	0.593	0.553	0.534	0.652	0.617
NCI-H1993	0.857	0.744	0.887	0.808	0.904	1.01		0.947	0.638	0.428	0.55	0.499	0.522	0.693	0.694		0.685	0.901	0.718
NCI-H2009	1.2	1.19	1.17	1.19	1.03	1.13	1.05	0.801	0.316	0.274	0.274	0.247	0.21	1.11	1.13	1.1	0.786	1.01	0.996
NCI-H2023	0.789	0.803	1.16	1.11	1.09	1.02	1.08	0.799	0.571	0.538	0.517	0.439	0.499	0.684	0.681	0.836	0.608	1.07	0.681
NCI-H2085	1.02	0.698	0.916	0.901	1.23	1.14	1.19	1		0.604	0.436	0.556	0.491	1	0.923	0.925	0.966	1.09	0.936
NCI-H2087	0.982	1.19	1.05	1.1	0.911	0.917	0.903	0.855	0.256	0.171	0.21	0.181	0.182	0.897	0.855	0.803	0.495	0.903	0.844
